US20230058623A1, “NOVEL HETEROARYL-TRIAZOLE COMPOUNDS AS PESTICIDES” (Bayer Aktiengesellschaft, priority 2019, published 2023)

Tests used:
Assay type in all cases: in vivo
[1] = test system: Rhipicephalus (Boophilus) microplus larvae (strain Parkhurst, resistant against synthetic pyrethroids); assay: Rhipicephalus (Boophilus) microplus in-vitro contact test, larval cattle tick; conditions: after 48 hours, read-out: activity (efficacy: larvae dead or moribund); for pest or weed control at 1 µg/cm2, 100 g/ha: application rate 1 μg/cm^2 (=100 g/ha); for pest or weed control at 5 µg/cm2, 500 g/ha: application rate 5 μg/cm^2 (=500 g/ha)
How it was run: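 Pyrethroid-resistant Parkhurst larvae, 20–50 per tube, were kept 48 h at 27 °C and 85% relative humidity in glass tubes whose inner walls carried a dried acetone film of compound (900 ppm giving 5 μg/cm^2). Dead or moribund larvae, judged by loss of negative geotactic behavior, set percent efficacy.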

[2] = test system: adult engorged female ticks (Rhipicephalus microplus); assay: Rhipicephalus (Boophilus) microplus injection test; conditions: 168 h, application rate 4 μg/tick, egg deposition after 7 days, read-out: activity (efficacy: infertile eggs)
Description: Rhipicephalus (Boophilus) microplus—Injection Test
(§1) Solvent: dimethyl sulfoxide
To produce a suitable preparation of active compound, 10 mg of active compound are dissolved in 0.5 mL solvent, and the concentrate is diluted with solvent to the desired concentration.
Five adult engorged female ticks (Rhipicephalus microplus) are injected with 1 μL compound solution into the abdomen. The ticks are transferred into replica plates and incubated in a climate chamber.
After 7 days egg deposition of fertile eggs is monitored. Eggs where fertility is not visible are stored in a climate chamber till hatching after about 42 days. An efficacy of 100% means all eggs are infertile; 0% means all eggs are fertile.

[3] = test system: adult unfed cat fleas (Ctenocephalides felis); assay: Ctenocephalides felis oral test; conditions: 48 h, read-out: activity (mortality)
Description: Ctenocephalides felis—Oral Test
as §1
To produce a suitable preparation of active compound, 10 mg of active compound are dissolved in 0.5 mL solvent, and the concentrate is diluted with citrated cattle blood to the desired concentration.
Approximately 20 adult unfed cat fleas (Ctenocephalides felis) are placed in a flea chamber whose top and bottom is covered with gauze. A chamber whose bottom is sealed with parafilm, is filled with the blood-compound solution and placed on top of the flea chamber, so that the fleas can suck the blood. The blood chamber is heated to 37° C. whereas the flea chamber is kept at room temperature.
After 2 days mortality in % is determined. 100% means all the fleas have been killed; 0% means none of the fleas have been killed.

[4] = test system: larvae of the banded cucumber beetle (Diabrotica balteata); assay: Diabrotica balteata spray test; conditions: 168 h, application rate 100 g/ha (=32 μg/well), after 7 days, wheat seeds, read-out: activity (efficacy: seedlings grown)
How it was run: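 Efficacy (%) read 7 days after infesting treated seedlings with 10-20 banded cucumber beetle larvae, 100% meaning growth as in uninfected untreated control and 0% no growth. Test solutions in water containing 1000 ppm emulsifier were sprayed onto wheat seeds germinated for 1 day on agar.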

[5] = test system: fall armyworm larvae (Spodoptera frugiperda); assay: Spodoptera frugiperda spray test; conditions: 168 h, application rate 100 g/ha, after 7 days, maize leaf sections
How it was run: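 Seven-day percent mortality of larvae feeding on Zea mays leaf sections sprayed with test compound. Dilutions were made in water holding 1000 ppm emulsifier.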

[6] = test system: adult brown dog ticks (Rhipicephalus sanguineus); assay: Rhipicephalus sanguineus in-vitro contact test, adult brown dog ticks; conditions: application rate 5 μg/cm^2 (=500 g/ha), after 48 hours, read-out: activity (efficacy: ticks dead or moribund)
How it was run: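 Contact exposure: dried compound film inside glass tubes, dose 5 μg/cm^2 at 900 ppm, 5-10 adults per tube at room temperature. Scored at 48 h via a heat-escape test on a 45-50° C plate for up to 5 min.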

[7] = test system: green peach aphid (Myzus persicae); assay: Myzus persicae oral test; conditions: 120 h, read-out: activity (mortality)
How it was run: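 Five-day oral feeding assay measuring percent mortality of a mixed aphid population that draws compound-containing sugared IPL41 medium through sealing parafilm; the test preparation derives from 1 part compound per 100 parts acetone, diluted with water.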

[8] = test system: adult cat fleas (Ctenocephalides felis); assay: Ctenocephalides felis in-vitro contact test, adult cat flea; conditions: application rate 5 μg/cm^2 (=500 g/ha), after 48 hours, read-out: activity (efficacy: fleas dead or moribund)
How it was run: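 After 48 h of room-temperature exposure in tubes whose walls carried dried compound residue (5 μg/cm^2, from 900 ppm acetone solution), adult cat fleas (5-10 per tube) were heat-challenged at 45-50° C up to 5 min. Fleas unable to climb away were counted dead or moribund, expressed as % efficacy.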

[9] = test system: adult mosquitoes Aedes aegypti strain MONHEIM; assay: Aedes aegypti test (AEDSAE surface treatment & contact assay); conditions: surface concentration 20 mg/m^2, exposure 30 minutes, 24 hours after contact, read-out: efficacy (mortality)
Description: Aedes aegypti Test (AEDSAE Surface Treatment & Contact Assay)
(§2) Solvent: Aceton+2000 ppm rapeseed oil methyl ester (RME)
(§3) In order to produce a sufficient, active ingredient containing solution it is necessary to solve the test compound in the solvent-mix (acetone at 2 mg/ml/RME 2000 ppm). This solution is pipetted onto a glazed tile and after evaporation of the acetone, adult mosquitoes of the species Aedes aegypti strain MONHEIM are placed onto the dried surface. The exposure time is 30 minutes.
(§4) Mortality in percent (%) is determined 24 hours after contact of the insects to the treated surface. 100% mortality means that all tested insects are dead, whereas 0% means that no insect died.

[10] = test system: adult flies Musca domestica strain WHO-N; assay: Musca domestica test (MUSCDO surface treatment & contact assay); conditions: 24 hours after contact, read-out: efficacy (mortality); for mortality at 20 mg/m2: surface concentration 20 mg/m^2, exposure 30 minutes
Description: Musca domestica Test (MUSCDO Surface Treatment & Contact Assay)
as §2
as §3, with “flies” for “mosquitoes”, “Musca domestica” for “Aedes aegypti”, “WHO-N” for “MONHEIM”
as §4

[11] = test system: green peach aphid (Myzus persicae); assay: Myzus persicae spray test; conditions: foliar, 120 h, application rate 100 g/ha, after 5 days, Chinese cabbage leaf disks, read-out: activity (mortality)
How it was run: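 Percent kill was recorded 5 days after spraying. Test solutions, prepared with solvent and diluted in 1000 ppm emulsifier water, were applied to Brassica pekinensis leaf disks carrying mixed-instar green peach aphids.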

[12] = test system: larvae of the southern green stink bug (Nezara viridula); assay: Nezara viridula spray test; conditions: 96 h, after 4 days, barley plants; for mortality at 100 g/ha: application rate 100 g/ha
Description: Nezara viridula—Spray Test
To produce a suitable preparation of active compound, 1 part by weight of active compound is mixed with the stated amount of solvent, and the concentrate is diluted with water, containing an emulsifier concentration of 1000 ppm, to the desired concentration. Further test concentrations are prepared by dilution with emulsifier containing water.
Barley plants (Hordeum vulgare) are sprayed with a test solution containing the desired concentration of the active ingredient and are infested with larvae of the southern green stink bug (Nezara viridula).
After 4 days mortality in % is determined. 100% means all the stink bugs have been killed; 0% means none of the stink bugs have been killed.

Row | Compound | pest or weed control at 1 µg/cm2, 100 g/ha [1] | pest or weed control at 5 µg/cm2, 500 g/ha [1] | pest or weed control at 0.004 mg [2] | mortality at 100 ppm [3] | pest or weed control at 32 µg/disc, 100 g/ha [4] | mortality at 100 g/ha [5] | pest or weed control at 5 µg/cm2, 500 g/ha [6] | mortality at 4 ppm [7] | pest or weed control at 5 µg/cm2 [8] | mortality at 20 ppm [7] | mortality at 20 mg/m2 [9] | mortality at 20 mg/m2 [10] | mortality at 100 g/ha [11] | mortality at 100 g/ha [12] | mortality at 4 mg/m2 ([10]; surface concentration 4 mg/m^2, exposure 30 minutes) | mortality at 500 g/ha ([12]; application rate 500 g/ha, read-out: activity (mortality))
1 | CC(NC(=O)c1cc(C(F)(F)F)cc(C(F)(F)F)c1)c1nc(I)nn1-c1ccc(C(=O)N2CCOCC2)cn1 (racemic) [Example I-84, N-[1-[5-iodo-2-[5-(morpholine-4-carbonyl)-2-pyridyl]-1,2,4-triazol-3-yl]ethyl]-3,5-bis(trifluoromethyl)benzamide] | 100% | 100% | 100% | 100% | 100% | 100% |  |  |  |  |  |  |  |  |  | 
2 | CC(NC(=O)c1cc(Br)cc(Br)c1)c1nc(Cl)nn1-c1ccc(C(=O)N2CCOCC2)cn1 (racemic) [Example I-87, 3,5-Dibromo-N-[1-[5-chloro-2-[5-(morpholine-4-carbonyl)-2-pyridyl]-1,2,4-triazol-3-yl]ethyl]benzamide] | 100% | 90% | 100% | 90% |  |  |  |  |  |  |  |  |  |  |  | 
3 | C[C@H](NC(=O)c1cc(C(F)(F)F)cc(C(F)(F)F)c1)c1ncnn1-c1cc(C(=O)N2CCOCC2)ccn1 [Example I-3] | 100% | 100% |  | 90% |  |  | 100% | 90% |  |  |  |  |  |  |  | 
4 | C[C@H](NC(=O)c1cc(C(F)(F)F)cc(C(F)(F)F)c1)c1ncnn1-c1ccc(C(=O)N2CCCC(O)C2)cn1 (stereo partly shown) [Example I-7] | 90% | 90% | 100% | 90% |  |  |  | 100% | 90% |  |  |  |  |  |  | 
5 | Cc1nc([C@H](C)NC(=O)c2cc(C(F)(F)F)cc(C(F)(F)F)c2)n(-c2ncc(C(=O)N3CCC3)s2)n1 [Example I-17] | 100% | 100% | 100% | 100% |  | 100% |  | 100% | 80% |  |  |  |  |  |  | 
6 | Cc1nc([C@H](C)NC(=O)c2cc(Cl)cc(C(F)(F)F)c2)n(-c2ccc(C(=O)N3CC[C@H](F)C3)cn2)n1 [Example I-18] | 100% | 90% | 100% | 100% |  | 100% | 100% |  | 90% |  |  |  |  |  |  | 
7 | C[C@H](NC(=O)c1cc(Cl)cc(C(F)(F)F)c1)c1ncnn1-c1ccc(C(=O)N2CCOC[C@@H]2C)cn1 [Example I-37] | 100% | 100% | 100% | 80% | 100% | 100% | 100% |  |  |  |  |  |  |  |  | 
8 | C[C@H](NC(=O)c1cc(Cl)cc(C(F)(F)F)c1)c1ncnn1-c1ccc(C(=O)N2CCN(C)CC2)cn1 [Example I-42] | 100% |  | 100% | 80% | 80% |  |  |  |  |  |  |  |  |  |  | 
9 | CC(NC(=O)c1cc(Cl)cc(OC(F)(F)F)c1)c1nc(C(F)F)nn1-c1ccc(C(=O)N2CCOCC2)cn1 (stereo not shown) [Example I-59] |  |  | 100% | 100% | 80% |  |  |  |  | 100% |  |  |  |  |  | 
10 | C[C@H](NC(=O)c1cc(C(F)(F)F)cc(C(F)(F)F)c1)c1ncnn1-c1ccc(C(=O)N2CCOC[C@@H]2C)cn1 [Example I-67] | 100% | 100% |  |  | 100% | 100% |  | 100% | 100% |  | 80 to 100% | 80 to 100% |  |  |  | 
11 | Cc1nc([C@H](C)NC(=O)c2cc(C(F)(F)F)cc(C(F)(F)F)c2)n(-c2ccc(C(=O)N3CCO[C@H](C)C3)cn2)n1 [Example I-70] | 100% | 100% |  |  | 100% | 100% | 100% | 100% | 100% |  | 80 to 100% | 80 to 100% | 90% | 90% | 80 to 100% | 
12 | C[C@@H]1CN(C(=O)c2ccc(-n3nc(C4CC4)nc3[C@H](C)NC(=O)c3cc(C(F)(F)F)cc(C(F)(F)F)c3)nc2)C[C@H](C)O1 [Example I-89] | 100% | 100% |  |  | 100% | 100% | 100% |  | 100% |  |  | 80 to 100% |  |  |  | 100%
13 | C[C@H](NC(=O)c1cc(Cl)cc(C(F)(F)F)c1)c1ncnn1-c1ccc(N2CC(F)(F)C2)cn1 [Example I-108] |  |  |  | 100% |  |  |  |  |  |  |  |  |  |  |  | 
14 | C[C@H](NC(=O)c1cc(C(F)(F)F)cc(C(F)(F)F)c1)c1ncnn1-c1ccc(C(=O)N(C)C2COC2)cn1 [Example I-112] | 100% | 100% |  |  |  | 100% |  | 70% | 90% |  | 80 to 100% | 80 to 100% | 100% | 100% |  | 
